This note sets out measurements from US9181263B2, “Inhibitors of bruton's tyrosine kinase” (PHARMACYCLICS, INC., priority 2007, dated 2015).

Usually IC50 stands for the concentration that gives 50% inhibition.

Series [1] has as its target panel of greater than 100 kinases (Tec family kinases including Btk, Src family kinases). Description: In vitro profiling against a panel of greater than 100 kinases. The series is classed as biochemical. The text has this: By way of example only and in some embodiments, the observed potency, selectivity, and cell permeability of compounds such as Compound 2 are appropriate to incorporate these molecules into a Kinase-targeted, activity based probe that allows direct visualization of Kinase activity in intact cells. […] Without limiting the scope of the compositions and methods described herein, it is postulated that the structural basis for the selectivity is covalent modification of a non-catalytic cysteine residue (Cys 481 in Btk) that is conserved in the ATP binding pocket of the Tec family and several other kinases.

Series [2] can be described thus: Plasma concentrations after oral dosing of rats. It counts as in vivo, male jugular vein cannulated rats. As to conditions: rat plasma, single 8 mg/kg dose by oral gavage, dosed in combination. As for the experimental part:
Blood samples were collected at 0.0833 (5 minutes), 0.333 (20 minutes), 1, 3, 6, 9, and 24 hours post-dosing from orally dosed rats.
Male jugular vein cannulated rats were administered a single dose of all test compounds at 8 mg/kg each, in combination by oral gavage. Dose volumes were adjusted based on body weight data collected immediately prior to dosing. Blood samples were collected at 0.0833 (5 minutes), 0.333 (20 minutes), 1, 3, 6, 9, and 24 hours post-dosing from orally dosed rats. The samples were collected into plasma separator Microtainer tubes with anticoagulant (lithium heparin). Plasma samples were prepared by centrifugation (5 min at 5000×g), and at least 100 μL were transferred to storage tubes and stored frozen at −80° C. Plasma samples were thawed and 75 uL aliquots were transferred to centrifuge tubes to which 10 μL aliquots of internal standard solution (1 μg/mL) were added. The samples were not diluted with blank plasma prior to further processing. Soluble proteins were precipitated by the addition of 200 μL of acetonitrile, followed by centrifugation (20 min at 16,000×g). The samples were evaporated to dryness and reconstituted in 200 μL of water containing 0.2% formic acid and 10% methanol. All samples were loaded onto an autosampler maintained at 6° C. and evaluated for concentrations of test compounds using LC-MS/MS.

The subject of series [3] is collagen-induced arthritis (paw inflammation). The series can be described thus: Collagen-induced arthritis in the mouse. The series is classed as in vivo, male DBA/1OlaHsd mice. The settings on record: to day 11. As for the experimental part:
[…]. Compound for vehicle was dosed orally once per day starting at day 1. Dexamethasone was included as a positive control. Paw inflammation was scored from 0-5 and averaged across all paws from all animals for each group in the study.
. After paw inflammation was established, animals were randomized and Compound for vehicle was dosed orally once per day starting at day 1. Paw inflammation was scored from 0-5 and averaged across all paws from all animals for each group in the study. […] Dexamethasone was included as a positive control.

The nature of series [4]: Glutathione binding assay. The series is classed as physicochemical. The settings on record: 5 mM glutathione, 10 μM inhibitor, potassium phosphate buffer, room temperature, HPLC. As for the experimental part:
A calculated value (e.g (1/Btk IC50)/Glutathione conjugation rate) as shown in the Table 2) is used to compare compounds for their ratio between potency at inhibiting their target and their non-specific binding to other SH groups, such as those in glutathione. […] Calculated ratios such as these are used to quantitatively compare different compounds and select compounds for further study.
For the glutathione binding assays, 5 mM glutathione, 10 μM Btk inhibitor in DMSO (10 μL) and 6 equivalents of N′N′ Diisopropyl ethyl amine were combined in 1 mL potassium phosphate buffer. The mixture was incubated for 0, 15, 60 minutes at room temperature and the reaction was stopped with 10 equivalents of formic acid. 50 μL of each reaction mixture was injected on HPLC (Mobil Phase A: 0.2% formic acid in water, Mobile Phase B: 0.2% formic acid in acetonitrile, HPLC Column: Metasil Basic 3μ, 150×4.6 mm, 10% B, Gradient: 10% to 90% B, Detection: UV/Vis […]). Rate of reaction was reported as nmole GSH conjugate conversion per minute from the normalized ratio for area under the curve from HPLC chromatograms for both GSH conjugate and the parent.

In series [5] the test system is pERK / BCR signal transduction pathway in Ramos cells. Description: BCR pathway phosphorylation (phospho-specific antibodies) in Ramos. The series is classed as cell-based. The settings on record: unstimulated Ramos cells (basal). The text has this: (§1) To identify biomarkers that correlate with response to Compound 1, phosphorylation events in the BCR signal transduction pathway were investigated.
(§2) However, when we examined basal phosphorylation levels, we found higher basal phosphorylation in DOHH2 compared to Ramos, with phospho-ERK in particular indicating higher levels of basal or tonic signaling in DOHH2.

The test system of series [6] is pERK / BCR signal transduction pathway in DOHH2 cells. The series can be described thus: BCR pathway phosphorylation (phospho-specific antibodies) in DOHH2. The settings on record: unstimulated DOHH2 cells (basal); read-out: pERK levels IC50. The series is classed as cell-based.
Source text: as §1, §2

The target in a further series is BTK (Homo sapiens (Human), UniProt Q06187). Description: HotSpot kinase assay, BTK. The series is classed as biochemical. As to conditions: purified enzyme, 33P-ATP, 1 uM ATP.
The test system of the next series is Egr-1. Description: Expression of ERK transcriptional target Egr-1. The series is classed as cell-based. As to conditions: 1 uM.

BTK, sequence (Q06187 whole entry): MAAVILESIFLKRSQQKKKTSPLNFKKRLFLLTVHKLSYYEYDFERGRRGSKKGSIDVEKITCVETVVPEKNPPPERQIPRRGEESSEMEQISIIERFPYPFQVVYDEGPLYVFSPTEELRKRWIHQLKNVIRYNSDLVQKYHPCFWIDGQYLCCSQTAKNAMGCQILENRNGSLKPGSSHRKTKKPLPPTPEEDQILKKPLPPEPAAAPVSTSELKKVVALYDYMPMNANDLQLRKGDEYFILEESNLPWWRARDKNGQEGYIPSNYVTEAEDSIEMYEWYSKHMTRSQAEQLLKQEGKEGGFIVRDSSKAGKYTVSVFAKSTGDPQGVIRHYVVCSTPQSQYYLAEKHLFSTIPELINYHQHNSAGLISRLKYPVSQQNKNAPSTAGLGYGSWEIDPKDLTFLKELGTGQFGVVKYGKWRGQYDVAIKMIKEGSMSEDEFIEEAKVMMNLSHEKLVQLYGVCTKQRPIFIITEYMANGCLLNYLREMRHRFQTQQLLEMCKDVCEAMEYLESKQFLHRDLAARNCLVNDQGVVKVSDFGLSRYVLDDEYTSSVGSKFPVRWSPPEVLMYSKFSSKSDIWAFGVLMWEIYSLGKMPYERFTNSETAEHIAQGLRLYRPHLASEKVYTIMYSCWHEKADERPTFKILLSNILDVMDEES

With `CN(C)C/C=C/C(=O)N1CCC[C@@H](n2nc(-c3ccc(Oc4ccccc4)cc3)c3c(N)ncnc32)C1` [Compound 2], in series [1], the kinase panel profile result was “highly potent and selective inhibitor of Tec family kinases, including, Btk, as well as Src family kinases”. Consider `CN(C)C/C=C/C(=O)N[C@H]1CC[C@@H](n2nc(-c3ccc(Oc4ccccc4)cc3)c3c(N)ncnc32)CC1` [Compound 8, (E)-N-((1s,4s)-4-(4-amino-3-(4-phenoxyphenyl)-1H-pyrazolo[3,4-d]pyrimidin-1-yl)cyclohexyl)-4-(dimethylamino)but-2-enamide], for which, in series [2], the in vivo half-life result is listed as “significantly longer in vivo half-life”.

Turning to `C=CC(=O)N[C@H]1CC[C@@H](n2nc(-c3ccc(Oc4ccccc4)cc3)c3c(N)ncnc32)CC1` [Compound 9], the paw inflammation result in series [3] (12.5 mg/kg orally once per day) and in series [3] (50 mg/kg orally once per day) was “reduced the increase in paw inflammation” each time. As for `CN(C)C/C=C/C(=O)N1CCC[C@H]1Cn1nc(-c2ccc(Oc3ccccc3)cc2)c2c(N)ncnc21` [Compound 12, (E)-1-((S)-2-((4-amino-3-(4-phenoxyphenyl)-1H-pyrazolo[3,4-d]pyrimidin-1-yl)methyl)pyrolidin-1-yl)-4-(dimethylamino)but-2-en-1-one], the “Glutathione Conj Rate” value in series [4] worked out at 0.004361 nmol/min. Also, the in vivo half-life entry in series [2] was “short half-life in vivo”. For the compound `CC#CC(=O)N[C@H]1CC[C@@H](n2nc(-c3ccc(Oc4ccccc4)cc3)c3c(N)ncnc32)CC1` [Compound 22, N-((1s,4s)-4-(4-amino-3-(4-phenoxyphenyl)-1H-pyrazolo[3,4-d]pyrimidin-1-yl)cyclohexyl)but-2-ynamide], the “Glutathione Conj Rate” value in series [4] turned out to be 0.014 nmol/min. As to `C=CC(=O)N1CCC(n2nc(-c3ccc(Oc4ccccc4)cc3)c3c(N)ncnc32)CC1` [Compound 6], in series [4], the “Glutathione Conj Rate” value worked out at 0.39 nmol/min. Consider `Nc1ncnc2c1c(-c1ccc(Oc3ccccc3)cc1)nn2C1CCCN(C(=O)/C=C/CN2CCOCC2)C1` (centres unmarked) [Compound 5, (E)-1-(3-(4-amino-3-(4-phenoxyphenyl)-1H-pyrazolo[3,4-d]pyrimidin-1-yl)piperidin-1-yl)-4-morpholinobut-2-en-1-one], for which the “Glutathione Conj Rate” value in series [4] is recorded as 0.004 nmol/min.

As to `Nc1ncnc2c1c(-c1ccc(Oc3ccccc3)cc1)nn2C1CCCN(C(=O)/C=C/c2c[nH]cn2)C1` (centres unmarked) [Compound 4], the “decrease of pERK levels” value in series [5] is recorded as “not”. Further, the half-maximal inhibitory concentration (IC50) was below 10 nM in series [6] and 22.2 nM on BTK. In addition, the “time to reduced Egr-1 expression” value in the series with Egr-1 was at most 1 h. In the series on Egr-1 (achieved by 4 hr), the “maximal downregulation of Egr-1 expression” value came out at 10 fold. As for `CC#CC(=O)N1CCC[C@@H](n2nc(-c3ccc(Oc4ccccc4)cc3)c3c(N)ncnc32)C1` [Compound 17, 1-((R)-3-(4-amino-3-(4-phenoxyphenyl)-1H-pyrazolo[3,4-d]pyrimidin-1-yl)piperidin-1-yl)but-2-yn-1-one], in series [4], the “Glutathione Conj Rate” value is reported as 0.0243 nmol/min. `CN(C)C/C=C/C(=O)N1CCC(n2nc(-c3ccc(Oc4ccccc4)cc3)c3c(N)ncnc32)CC1` [Compound 7, (E)-1-(4-(4-amino-3-(4-phenoxyphenyl)-1H-pyrazolo[3,4-d]pyrimidin-1-yl)piperidin-1-yl)-4-(dimethylamino)but-2-en-1-one]: the “Glutathione Conj Rate” value in series [4] turned out to be 0.01 nmol/min. For the same compound, the in vivo half-life result in series [2] was “significantly longer in vivo half-life”.
